Data set [1] deals with hERG (Homo sapiens (Human), UniProt Q12809). The data set can be described thus: hERG radioligand binding assay. Particulars: for inhibition at 1 h, 10000 nM: human, hERG membrane stocks (membrane preparation), probe 3H radio ligand (not named), max dose 10,000 nM, read-out: % Inh at Max dose. As to the method:
Procedure: Compounds were prepared and diluted with DMSO to make 0.2 mM and 0.02 mM solution. Reference compound was diluted with DMSO to make 8-point 4-fold serial dilution, starting at 0.2 mM. One μl of compounds/high control/low control was transferred to the assay plate according to the plate map. Next, and by following the plate map, 100 μl of membrane stocks was dispensed into the plate followed by adding 100 μl of radio ligand. Plates were then sealed and were incubated at RT for 1 hours. In the meantime, the Unifilter-96 GF/C filter plates were soaked with 50 μL of 0.5% BSA per well for at least 0.5 hour at room temperature. When binding assays were completed, the reaction mixture was filtered through GF/C plates using Perkin Elmer Filtermate Harvester, and then each plate was washed for 4 times with cold wash buffer. Next, the filter plates were dried for 1 hr at 50 degrees and the bottom of the filter plate wells were sealed using Perkin Elmer Unifilter-96 backing seal tape. Next, 50 μl of Perkin Elmer Microscint 20 cocktail was added. The top of the filter plate was sealed with Perkin Elmer TopSeal-A sealing film. Using Perkin Elmer MicroBeta2 Reader count 3H trapped on filter. Finally, the data was analyzed with GraphPad Prism 5. The “Inhibition [% Control]” was calculated using the equation: % Inh=(1-Background subtracted Assay value/Background subtracted HC value)*100.
(In general: Block of hERG is tested as a sign of cardiac risk.)

In data set [2] the test system is MV-411 cells. Kind of data set: Anti-proliferative activity against MV-411 leukemia cells (CellTiterGlo viability, 72 h). The format is cell-based. The following applies: Homo sapiens, MV4-11, 72 h, MV-411 human acute monocytic leukemia cells, a second value in parentheses is a further determination. As to the method:
Procedure: MV-411 cells were seeded into 384 well plates at 2000 cells/well density in 50 μL total volume, according to plate map and were allowed to naturally sediment by waiting about 30 min on a Clean Bench. Next, plated cells were centrifuged for 1 min at 1000 rpm and the excess cells were transferred into the flasks for further culture. Cells in the assay plates were incubated (at least 4 hrs.) at 37° C., 5% CO2 followed by adding the compounds as the plate map indicated. The tests were performed in duplicates with treatment of compounds at 10 pts 3-fold titration in 384 well plates. Taxol was used as positive control while DMSO as negative control. To rule out edge effect, the wells on the edge were not seeded and therefore one 384 well plate holds 13 compounds. Cells viability was measured 72h after incubation with compounds using CellTiterGlo (promega) viability assay according to manufacturer's instruction to check the ATP production in each well.
Experiments on anti-proliferative activity against leukemia cells were conducted with some of the compounds of the invention.
(Cellular ATP, detected with luciferase, serves as a proxy for viable cell number.)

Data set [3] in a line: Solubility remark in Table 4. The data set is classed as physicochemical. Particulars: remark beside the GI50 value.
In data set [4] the target is MLL1-WDR5 protein-protein interaction (Homo sapiens (Human), UniProt P61964). The data set can be described thus: WDR5 TR-FRET assay (MLL1-WDR5 PPI inhibition). The data set is classed as binding. The following applies: 5 nM WDR5 protein, 10 nM peptide, read-out: IC50 (nM), MLL1-WDR5 PPI inhibitory activity. Background: TR-FRET usually uses a lanthanide donor and a delayed reading to cut background.

SMILES strings stand for the structures.

hERG, sequence (Q12809 whole entry): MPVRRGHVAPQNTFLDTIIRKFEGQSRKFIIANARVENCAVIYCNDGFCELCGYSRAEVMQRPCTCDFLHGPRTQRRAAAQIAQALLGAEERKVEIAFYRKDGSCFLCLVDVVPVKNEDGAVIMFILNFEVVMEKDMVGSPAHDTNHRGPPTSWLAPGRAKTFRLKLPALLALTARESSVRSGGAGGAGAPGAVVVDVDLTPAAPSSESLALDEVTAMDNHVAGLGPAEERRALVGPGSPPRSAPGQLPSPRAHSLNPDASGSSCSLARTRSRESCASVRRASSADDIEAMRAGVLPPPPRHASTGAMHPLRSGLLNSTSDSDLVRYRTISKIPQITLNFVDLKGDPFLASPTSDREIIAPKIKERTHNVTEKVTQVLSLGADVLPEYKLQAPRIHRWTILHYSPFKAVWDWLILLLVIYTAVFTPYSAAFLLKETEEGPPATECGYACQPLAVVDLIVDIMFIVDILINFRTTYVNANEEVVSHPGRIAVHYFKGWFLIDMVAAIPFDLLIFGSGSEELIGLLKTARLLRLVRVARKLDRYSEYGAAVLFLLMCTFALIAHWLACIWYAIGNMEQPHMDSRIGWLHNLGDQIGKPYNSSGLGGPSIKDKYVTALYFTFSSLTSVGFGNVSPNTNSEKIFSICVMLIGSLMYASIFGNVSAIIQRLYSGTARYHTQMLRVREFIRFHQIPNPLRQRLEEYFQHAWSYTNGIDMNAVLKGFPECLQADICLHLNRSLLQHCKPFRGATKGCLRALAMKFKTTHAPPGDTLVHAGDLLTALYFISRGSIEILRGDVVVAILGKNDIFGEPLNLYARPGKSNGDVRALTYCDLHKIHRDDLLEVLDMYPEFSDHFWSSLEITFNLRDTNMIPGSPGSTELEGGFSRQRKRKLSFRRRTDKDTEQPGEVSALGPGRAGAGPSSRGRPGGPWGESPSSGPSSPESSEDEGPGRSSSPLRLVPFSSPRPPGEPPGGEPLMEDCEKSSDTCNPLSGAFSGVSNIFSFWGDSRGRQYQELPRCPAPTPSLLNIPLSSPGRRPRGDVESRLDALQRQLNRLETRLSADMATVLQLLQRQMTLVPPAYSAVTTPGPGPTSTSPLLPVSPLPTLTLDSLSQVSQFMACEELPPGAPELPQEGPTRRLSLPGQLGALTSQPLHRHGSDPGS

As for `CN1CCN(c2ccc(-n3cc(C(=O)NCCCN4CCOCC4)nn3)cc2NC(=O)c2cnc(Cl)cc2C(F)(F)F)CC1` [Compound 3], in data set [1], the half-maximal inhibitory concentration (IC50) was above 10000 nM and the inhibition at 1 h, 10000 nM was determined as 3.31%. The 50% growth inhibitory concentration (GI50) in data set [2] is 0.298 µM.
As for `CN1CCN(c2cc(F)c(-n3cc(C(=O)NCCCN4CCOCC4)nn3)cc2NC(=O)c2cnc(Cl)cc2C(F)(F)F)CC1` [Compound 7], in data set [1], the half-inhibitory concentration (IC50) is above 10000 nM and the inhibition at 1 h, 10000 nM came out at 11.8%. In addition, the GI50 in data set [2] worked out at 0.4 µM.
Regarding `C[C@H]1CN(c2ccc(-n3cc(C(=O)NCCCN4CCOCC4)nn3)cc2NC(=O)c2cnc(Cl)cc2C(F)(F)F)CCN1C` [Compound 9], in data set [1], the IC50 was above 10000 nM and the inhibition at 1 h, 10000 nM was found to be 6.39%. Moreover, the concentration for 50% growth inhibition (GI50) in data set [2] turned out to be 0.241 µM.
Take `Cc1c(Cl)ncc(C(=O)Nc2cc(-n3cc(C(=O)NCCCN4CCOCC4)nn3)c(F)cc2N2CCN(C)[C@H](C)C2)c1Cl` [Compound 59]: the GI50 in data set [2] is above 204 µM. Besides, the “solubility (remark)” value in data set [3] is on record as “(poor solubility)”.
For the compound `CN(CCOc1ccc(NS(C)(=O)=O)cc1)CCc1ccc(NS(C)(=O)=O)cc1` [Dofetilide], the inhibition at 1 h, 10000 nM in data set [1] worked out at 99.9%.
Regarding `CN1CCN(c2ccc(-n3cc(C(=O)NCCCN4CCOCC4)nn3)cc2NC(=O)c2ncc(N)cn2)CC1` [HYBI-267, 5-amino-N-(2-(4-methylpiperazin-1-yl)-5-(4-((3-morpholinopropyl)carbamoyl)-1H-1,2,3-triazol-1-yl)phenyl)pyrimidine-2-carboxamide], in data set [4], the IC50 is above 10000 nM.
On the same count and under the same terms, as for `C[C@H]1CN(c2cc(F)c(-n3cc(C(=O)N4CCN(C)CC4)nn3)cc2NC(=O)c2cnc(Cl)cc2C(F)(F)F)C[C@H](C)N1C` [HYBI-284], the figure is 1270 nM.

As a reminder, the IC50 is the concentration at which inhibition is half-maximal. In general, GI50 refers to the concentration giving 50% growth inhibition.

These data come from US20230286948A1 (HUYABIO International, LLC, priority 2022, published 2023).
